Experimental data as given in patent publication US7462598B2, “Antimicrobial theta defensins, analogs thereof, and methods of use” (priority 2002, dated 2008).
Marks after values point to notes of the source that are not given here. Bridge positions count the residues as written; N and C are the ends. Peptide text beside a SMILES is read from it.

Assays:
E. coli ML35 [1] = experiment: Cell-suspension microbicidal assay (MMC); type: cell-based, Escherichia coli; details: for MMC, E. coli: lowest concentration that reduced cell viability by 99.9%, 10 mM PIPES, 5 mM glucose, pH 7.4, 2 h 37° C.
Experimental: (§1) To test microbicidal activities, the activities of each peptide against S. aureus 502a, E. coli ML35, and C. albicans 16820 were assessed essentially as described in Example I with modifications to allow for simultaneous analysis of all twenty peptides. Briefly, two-fold serial dilutions of each peptide (in 0.01% acetic acid 0.062-8.0 μg/ml final concentrations) were mixed with 10 mM PIPES, pH 7.4, containing 5 mM glucose in sterile polystyrene 96-well plates (Corning, N.Y.). Aliquots of log-phase bacteria or yeast were added to a 2×10^6 CFU/ml final density as determined by A620. After 2 h incubation at 37° C., 15 μl of the incubation mixture was removed and serially diluted ten-fold from 1:10 to 1:10^6 in trypticase soy broth (bacteria) or Sabaraud dextrose broth (C. albicans). The diluted cell suspensions were grown 24-48 h at 37° C. until cell pellets were visible. Microbicidal activity was determined as absence of growth and was correlated to CFU/ml in control experiments where activity was determined in parallel by colony counting (see Example I). Absence of growth at the 1:10^3 dilution is equivalent to a 3-log reduction in microbial viability.
(§2) The microbicidal activities of each peptide against E. coli ML35, S. aureus 502a, and C. albicans 16820 were determined with cell-suspension microbicidal assays in 96-well plates (see Example II). Briefly, log-phase cells (2×10^6 CFU/ml final) were incubated with increasing concentrations of peptides (0-8 μg/ml final) in 50 μl of 10 mM PIPES, 5 mM glucose, pH 7.4, for 2 h at 37° C. Incubation mixtures were diluted 1:10 to 1:10^6 with trypticase-soy broth (bacteria) or Sabaraud dextrose broth (fungi) and incubated at 37° C. for 24-48 h until cell pellets were visible. Microbicidal activities (confirmed in control experiments as described in Example II) were determined as the absence of a cell pellet in the various dilutions. Peptide concentrations that caused ≧99.9% killing (absence of a cell pellet at 1:10^3 dilution) were taken as the minimum microbicidal concentrations (MMC).

E. coli ML35 [2] = experiment: Membrane permeabilization assay (ONPG hydrolysis); type: cell-based, Escherichia coli; details: rates at 1 μg/ml concentration of each peptide
Experimental: For the membrane permeabilization assay, the permeabilization of bacterial cytoplasmic membranes was determined by measuring hydrolysis of o-nitrophenyl-β-D-galactcpyranoside (ONPG) in E. coli ML35 (Sitaram et al., FEBS Lett. 303:265-268 (1992); Lehrer et al.,. J. Immunol. Methods 108:153-158 (1988)). Peptides dissolved in 5 μl of 0.01% acetic acid were two-fold serially diluted with 10 mM PIPES, pH 7.4, containing 3 mM ONPG, to final peptide concentrations of 0-8.0 μg/ml. Log-phase bacteria, prepared in PIPES buffer as described for the microbicidal assay (see Example I), were added to 1×10^6 CFU/ml final density in a final volume of 90 μl. ONPG hydrolysis was measured at 405 nm for 60 min using a SpectraMAX 190 plate reader and SOFTmaxPRO 3.1 (Molecular Devices Corp., CA). […]

C. albicans 16820 = experiment: Cell-suspension microbicidal assay (MMC); type: cell-based, Candida albicans; details: for MMC, C. albicans: lowest concentration that reduced cell viability by 99.9%, 10 mM PIPES, 5 mM glucose, pH 7.4, 2 h 37° C.
Experimental: as §1, §2

[3] = tested on: S. aureus 502a, E. coli ML35, and C. albicans 16820; experiment: Cell-suspension microbicidal assay, statements across the test organisms (lowest MMC, overall ranges); type: cell-based; details: for 99.9% kill against one of the bacterial organisms: at 8 μg/ml, the highest concentration tested; for M: peptide concentration that kill 99.9% of either S. aureus, E. coli, or C. albicans, lowest MMC value; for fold higher MMC than the native cyclic peptide: de-cyclized analog versus native θ-defensin, three test organisms
Experimental: as §1, §2
(§3) A selectivity index (SI=H/M) was calculated as a ratio of a peptide concentration (μg/ml) that causes 3% hemolysis (H) obtained from a dose-dependent hemolysis plot over 0.3 to 3 μg/ml of each peptide in PBS and the lowest MMC value (M) for any of the three test microorganisms (see Example II; Table 2).

S. aureus 502a [4] = type: cell-based, Staphylococcus aureus; details: for enhancement of staphylocidal activity by serum: 10% normal human serum, FIG. 7
Experimental: Dose-dependent staphylocidal activity of each peptide was determined in assays containing 10% normal human serum. Percentages of killing are relative to activities of peptide-containing incubations in which serum was omitted.
(§4) To determine the effects of serum, salt, calcium chloride and magnesium chloride on microbicidal activities, peptide activities were determined in assays containing varying ionic strength, divalent cations, and serum. The effect of serum on staphylocidal activity of each peptide was determined by incubating 1×10^6 CFU/ml of S. aureus 502a with increasing peptide concentrations (0.5-4 μg/ml) in 10 mM PIPES, pH 7.4, containing 10% normal human serum for 2 h at 37° C. The effect of sodium chloride on staphylocidal activities was assessed with 5 μg/ml of each peptide in 10 mM PIPES, pH 7.4, containing varying concentrations of sodium chloride (0-160 mM). Effects of divalent cations, CaCl2, or MgCl2 (0-5.6 mM) were assessed in microbicidal assays against E. coli ML35. Bactericidal activities were determined by colony counting (see Example II), and microbicidal potencies were expressed as percent killing as follows:
(§5) [formula] where A=surviving bacteria (CFU/ml) after initial incubation with each peptide in buffer containing serum, salt, or divalent cations and Ao=bacterial CFU/ml in the “no-peptide” controls.

S. aureus 502a [5] = experiment: Cell-suspension microbicidal assay (MMC); type: cell-based, Staphylococcus aureus; details: for MMC, S. aureus: lowest concentration that reduced cell viability by 99.9%, 10 mM PIPES, 5 mM glucose, pH 7.4, 2 h 37° C.
Experimental: as §1, §2

human erythrocytes = experiment: Hemolysis assay; type: cell-based
Experimental: For the hemolysis assay, the hemolytic activity of each peptide was determined by the method of Tam et al. (Tam et al., Eur. J. Biochem. 267:3289-3300 (2000)). Blood was obtained from a healthy donor in accordance to a protocol approved by the Institutional Review Board. Normal human serum was prepared from the same individual and stored at −20° C. Red blood cells (RBC) were prepared from blood collected in EDTA. RBC were harvested at 234×g for 10 min, 22° C., washed four times with 10 mM sodium phosphate, 150 mM NaCl, pH 7.4 (PBS), containing 4 mM EDTA and resuspended in PBS without EDTA. Peptides dissolved in 10 μl 0.01% HOAc were diluted with PBS to final concentrations of 0.3-100 μg/ml. RBC were added to a 2% final density in 100 μl. Incubation mixtures were also prepared with 10% serum. After 1 h incubation at 37° C., the cell suspensions were centrifuged at 234×g for 10 min, 22° C. Fifty-μl samples of the supernatants were removed, and the absorbance at 405 nm (A) was measured. Hemolytic activity of each peptide was calculated relative to lysis by 1% NP-40 using the following formula:
as §3

S. aureus 502a [6] = type: cell-based, Staphylococcus aureus; details: physiologic salt / various concentrations of salt; FIG. 6
Experimental: The activity of each peptide (5 μg/ml) was determined in assays containing increasing concentrations of sodium chloride. Staphylocidal activities were expressed as percentages of killing obtained in the absence of additional NaCl.
as §4, §5

In the case of `CC(C)C[C@@H]1NC(=O)[C@@H]2CSSC[C@H](NC(=O)[C@H](CCCNC(=N)N)NC(=O)[C@@H](NC(=O)[C@@H](NC(=O)CNC(=O)[C@@H](N)CCCNC(=N)N)C(C)C)CSSC[C@@H](C(=O)N[C@@H](CCCNC(=N)N)C(N)=O)NC1=O)C(=O)N[C@@H](CC(C)C)C(=O)N[C@H]1CSSC[C@H](NC(=O)[C@H](C(C)C)NC(=O)CNC(=O)[C@H](CCCNC(=N)N)NC(=O)[C@H](CCCNC(=N)N)NC1=O)C(=O)N[C@@H](CCCNC(=N)N)C(=O)N2` [3:1 aRTD-3-NH] (H-RGVCRCLCRRGVCRCLCR-NH2; disulfide 4-17, 6-15, 8-13; N-terminus assumed), the “MMC, E. coli” value (E. coli ML35 [1]) was 1.0 µg/mL, the ONPG hydrolysis (E. coli ML35 [2]) was 9.4 (A405/sec) · 10^−5 and the “MMC, C. albicans” value (C. albicans 16820) was 0.8 µg/mL. The “99.9% kill against one of the bacterial organisms” value [3] was “did not achieve a 99.9% kill”, the M [3] was 0.75 µg/mL and the “inhibition of bactericidal activity in serum” value (S. aureus 502a [4]; 502a) was 20-50%. The “Killing percentage, S. aureus (MMC not reached)” value (S. aureus 502a [5]; at 8 μg/ml, the highest concentration tested) was “(99%)^b”, the “fold lower staphylocidal activity than RTD-3 and PG-1” value (S. aureus 502a [5]; from MMC, Table 2) was “at least 8 fold” and the “MMC, S. aureus” value (S. aureus 502a [5]) was over 8 µg/mL.

`CC(C)C[C@H](NC(=O)[C@H](CCCNC(=N)N)NC(=O)CNC(=O)CN)C(=O)N[C@H]1CSSC[C@@H](C(=O)N[C@H](C(=O)NCC(=O)N[C@@H](CCCNC(=N)N)C(=O)N[C@@H](CCCNC(=N)N)C(N)=O)C(C)C)NC(=O)[C@H](C(C)C)NC(=O)[C@@H]2CSSC[C@H](NC(=O)[C@H](Cc3ccc(O)cc3)NC1=O)C(=O)N[C@@H](CCCNC(=N)N)C(=O)N[C@@H](CCCNC(=N)N)C(=O)N[C@@H](CCCNC(=N)N)C(=O)N[C@@H](Cc1ccccc1)C(=O)N2` [4:4 PG-1-NH] (H-GGRLCYCRRRFCVCVGRR-NH2; disulfide 5-14, 7-12; N-terminus assumed) was tested, and the “MMC, E. coli” value (E. coli ML35 [1]) was 1.0 µg/mL, the ONPG hydrolysis (E. coli ML35 [2]) was 12.4 (A405/sec) · 10^−5 and the “MMC, C. albicans” value (C. albicans 16820) was 1.5 µg/mL. The M [3] was 0.5 µg/mL, the “enhancement of staphylocidal activity by serum” value (S. aureus 502a [4]) was about 40% and the “MMC, S. aureus” value (S. aureus 502a [5]) was 0.5 µg/mL.

With `CC(C)C[C@H](NC(=O)[C@H](CCCNC(=N)N)NC(=O)CNC(=O)CNC(=O)[C@@H](N)CCCNC(=N)N)C(=O)N[C@H]1CSSC[C@@H](C(=O)N[C@H](C(=O)NCC(=O)N[C@@H](CCCNC(=N)N)C(=O)O)C(C)C)NC(=O)[C@H](C(C)C)NC(=O)[C@@H]2CSSC[C@H](NC(=O)[C@H](Cc3ccc(O)cc3)NC1=O)C(=O)N[C@@H](CCCNC(=N)N)C(=O)N[C@@H](CCCNC(=N)N)C(=O)N[C@@H](CCCNC(=N)N)C(=O)N[C@@H](Cc1ccccc1)C(=O)N2` [PG-1-OH] (H-RGGRLCYCRRRFCVCVGR-OH; disulfide 6-15, 8-13; N-terminus assumed) the “percent less hemolytic than native PG-1” value (human erythrocytes) was “about 50%”, the “fold lower potency against E. coli than native PG-1” value (E. coli ML35 [1]; from MMC, Table 2) was 1- to 2 fold and the “MMC, E. coli” value (E. coli ML35 [1]) was 1.5 µg/mL. For the same compound, the ONPG hydrolysis (E. coli ML35 [2]) was 10.7 (A405/sec) · 10^−5, the “fold lower candidacidal potency than native PG-1” value (C. albicans 16820; from MMC, Table 2) was 1- to 2 fold and the “MMC, C. albicans” value (C. albicans 16820) was 1.5 µg/mL. For the same compound, the “fold less microbicidal than PG-1” value ([3]; Table 5) was 2-3 fold, the M [3] was 1.5 µg/mL and the “enhancement of staphylocidal activity by serum” value (S. aureus 502a [4]) was 25%. For the same compound, the “fold lower staphylocidal potency than native PG-1” value (S. aureus 502a [5]; from MMC, Table 2) was 5 fold and the “MMC, S. aureus” value (S. aureus 502a [5]) was 2.0 µg/mL.

For `CC[C@H](C)[C@@H]1NC(=O)[C@@H]2CSSC[C@H](NC(=O)[C@H](CCCNC(=N)N)NC(=O)[C@@H](NC(=O)[C@H](Cc3ccccc3)NC(=O)CN)CSSC[C@@H](C(=O)N[C@H](C(=O)N[C@@H](CCCNC(=N)N)C(=O)O)[C@@H](C)O)NC1=O)C(=O)N[C@@H](CC(C)C)C(=O)N[C@H]1CSSC[C@H](NC(=O)[C@H](C(C)C)NC(=O)CNC(=O)[C@H](CCCNC(=N)N)NC(=O)[C@H](CCCNC(=N)N)NC1=O)C(=O)N[C@@H](CCCNC(=N)N)C(=O)N2` [aRTD-1-OH] (H-GFCRCLCRRGVCRCICTR-OH; disulfide 3-16, 5-14, 7-12; N-terminus assumed), the H (human erythrocytes; peptide concentration that causes 3% hemolysis, calculated from dose-dependent hemolysis plot over 0.3-3 μg/ml in PBS) was 15.0 µg/mL, the “effect of salt on microbicidal activity (in words)” value (S. aureus 502a [6]) was “intermediate” and the ONPG hydrolysis (E. coli ML35 [2]) was 2.4 (A405/sec) · 10^−5. For the same compound, the “MMC, C. albicans” value (C. albicans 16820) was 4.0 µg/mL, the “99.9% kill against one of the bacterial organisms” value [3] was “did not achieve a 99.9% kill” and the “fold higher MMC than the native cyclic peptide” value [3] was 4 fold. The M [3] was 4 µg/mL and the “MMC, S. aureus” value (S. aureus 502a [5]) was 4.5 µg/mL.

With `CC(C)C[C@@H]1NC(=O)[C@@H]2CSSC[C@H](NC(=O)[C@H](CCCNC(=N)N)NC(=O)[C@@H](NC(=O)[C@@H](NC(=O)CN)C(C)C)CSSC[C@@H](C(=O)N[C@@H](CCCNC(=N)N)C(=O)N[C@@H](CCCNC(=N)N)C(=O)O)NC1=O)C(=O)N[C@@H](CC(C)C)C(=O)N[C@H]1CSSC[C@H](NC(=O)[C@H](C(C)C)NC(=O)CNC(=O)[C@H](CCCNC(=N)N)NC(=O)[C@H](CCCNC(=N)N)NC1=O)C(=O)N[C@@H](CCCNC(=N)N)C(=O)N2` [aRTD-3-OH] (H-GVCRCLCRRGVCRCLCRR-OH; disulfide 3-16, 5-14, 7-12; N-terminus assumed) the “effect of salt on microbicidal activity (in words)” value (S. aureus 502a [6]) was “least affected”, the “MMC, C. albicans” value (C. albicans 16820) was 1.5 µg/mL and the “fold higher MMC than the native cyclic peptide” value [3] was 1-2 fold. For the same compound, the M [3] was 1.5 µg/mL and the “MMC, S. aureus” value (S. aureus 502a [5]) was 1.5 µg/mL.
